For orientation: CC50 means the concentration at which the toxic effect on the cells reaches its halfway point. What is called inhibition is the relative decrease from the control value, in per cent.

This note sets out measurements from ChEMBL document CHEMBL3232982, “Cytotoxic properties of D-gluco-, D-galacto- and D-manno-configured 2-amino-2-deoxy-glycerolipids against epithelial cancer cell lines and BT-474 breast cancer stem cells” (2014).

Active and inactive are the calls of the source. The rule behind the calls is not given here.

Assay [1] relates to PC-3. As to the kind of experiment: Cytotoxicity against human PC3 cells assessed as reduction cell viability after 48 hrs by MTS assay. In kind it is functional. The following applies: PC-3, 48 h. (In general: Tetrazolium assays rely on reduction of a dye to a coloured formazan, in cell work by metabolically active cells.)
The subject of assay [2] is BT-474. As to the kind of experiment: Cytotoxicity against human BT474 cells assessed as reduction cell viability after 48 hrs by MTS assay. Conditions: BT-474, 48 h. In kind it is functional.
Assay [3] concerns BT-549. In words: Cytotoxicity against human BT549 cells assessed as reduction cell viability after 48 hrs by MTS assay. It is filed as functional. The following applies: BT-549, 48 h.
Assay [4] has as its system DU-145. In words: Cytotoxicity against human DU145 cells assessed as reduction cell viability after 48 hrs by MTS assay. It is filed as functional. Conditions: DU-145, 48 h.
Assay [5] is described as follows: Cytotoxicity against human MIAPaCa2 cells assessed as reduction cell viability after 48 hrs by MTS assay. It is filed as functional. Conditions: MIA PaCa-2, 48 h.
A short description of assay [6]: Cytotoxicity against human JIMT1 cells assessed as reduction cell viability after 48 hrs by MTS assay. In kind it is functional. Conditions: JIMT-1, 48 h.
Assay [7] deals with BT-474. In words: Cytotoxicity against human BT474 cells assessed as inhibition of cell viability at 10 to 20 uM after 6 days by MTS assay relative to untreated control. It is filed as functional, cell-based.
Assay [8] relates to BT-474. As to the kind of experiment: Cytotoxicity against tumorspheres of human BT474 cells assessed as disintegration of tumorspheres at 5 to 20 uM after 6 days by phase contrast microscopy relative to untreated control. It is filed as functional, cell-based.
For assay [9], the system named is BT-474. In words: Cytotoxicity against tumorspheres of human BT474 cells assessed as inhibition of cell viability at 10 to 20 uM after 6 days by MTS assay relative to untreated control. In kind it is functional, cell-based.
The subject of assay [10] is BT-474. As to the kind of experiment: Cytotoxicity against human BT474 cells assessed as inhibition of spheroids formation at 10 to 20 uM after 6 days by phase contrast microscopy relative to untreated control. It is filed as functional, cell-based.
The subject of assay [11] is BT-474. As to the kind of experiment: Cytotoxicity against tumorspheres of human BT474 cells assessed as inhibition of cell viability at 20 uM after 6 days by MTS assay relative to untreated control. In kind it is functional. Conditions: BT-474, 144 h.
The test system of assay [12] is BT-474. As to the kind of experiment: Cytotoxicity against human BT474 cells assessed as formation of spheroids with jagged rough edges at 10 to 20 uM after 6 days by phase contrast microscopy relative to untreated control. It is filed as functional, cell-based.
Assay [13] concerns BT-474. As to the kind of experiment: Cytotoxicity against human BT474 cells assessed as cell viability at 20 uM after 6 days by MTS assay relative to untreated control. The following applies: BT-474, 144 h, read-out: Activity. It is filed as functional.
In assay [14] the test system is BT-474. As to the kind of experiment: Cytotoxicity against tumorspheres of human BT474 cells assessed as cell viability at 30 uM after 6 days by MTS assay relative to untreated control. In kind it is functional. The following applies: BT-474, 144 h, read-out: Activity.

For the compound `CCCCCCCCCCCCCCCCOCC(CO[C@H]1O[C@H](CO)[C@@H](O)[C@H](O)[C@@H]1N)OC` (some centres undefined), the 50% cytotoxic concentration (CC50) in assay [1], in [2], in [3], in assay [4], in assay [5] and in assay [6] was more than 30 µM each time.

As for `CCCCCCCCCCCCCCCCOCC(CS[C@@H]1O[C@H](CO)[C@H](O)[C@H](O)[C@H]1N)OC` (some centres undefined), the CC50 in [1] was 24.3 µM; in assay [2], more than 30 µM; in [3] it was 22.2 µM; in [4], 18.8 µM; in [5], 20.2 µM; in assay [6] it was 15.5 µM.

As for `CCCCCCCCCCCCCCN` [TETRADECYLAMINE], the CC50 in assay [1] turned out to be 24.6 µM; in [2], 27.1 µM; in assay [3], 21.7 µM; in assay [4], 16.8 µM; in assay [5] it was 18.2 µM; in assay [6], 24.8 µM.

On to `CCCCCCCCCCCCCCCCOCC(CO[C@@H]1O[C@H](CO)[C@H](O)[C@H](O)[C@H]1N)OC` (some centres undefined), for which the CC50 was more than 30 µM in assay [1]; more than 30 µM in assay [2]; 27.6 µM in assay [3]; 19.5 µM in assay [4]; 25.8 µM in assay [5]; 24.8 µM in assay [6].

Consider `CCCCCCCCCCCCCCCCOCC(CO[C@H]1O[C@H](CO)[C@H](O)[C@H](O)[C@H]1N)OC` (some centres undefined), for which the inhibition entry in assay [7], in assay [9] and in [10] was “Active” in each case. Moreover, the CC50 stood at 8 µM in assay [1]; 6.2 µM in assay [2]; 6.3 µM in assay [3]; 4.7 µM in assay [4]; 4.4 µM in assay [5]; 4.5 µM in assay [6]. The outcome in assay [8] was Active.

On to `CCCCCCCCCCCCCCCCOCC(CO[C@@H]1O[C@H](CO)[C@@H](O)[C@H](O)[C@H]1N)OC` (some centres undefined), for which the inhibition result in assay [7] and in [10] was “Active” throughout. Also, the cytotoxic concentration (CC50) in [1] came to 13.5 µM; in assay [2] it was 8 µM; in assay [3], 13 µM; in assay [4], 10 µM; in [5] it was 10 µM; in [6], 9 µM. Besides, in [8], the outcome was Active.

For `CCCCCCCCCCCCCCCCCCOCC(COP(=O)([O-])OCC[N+](C)(C)C)OC` (centres undefined) [EDELFOSINE], the result in assay [8] was inactive. The inhibition at 20 µM in assay [11] was determined as 30%. In addition, the outcome in assay [12] was Active. Further, in [13], the viability at 20 µM was 55%. Besides, the viability at 30 µM in [14] is 45%.

For `CCCCCCCCCCCCCCCCOCC(CS[C@H]1O[C@H](CO)[C@H](O)[C@H](O)[C@H]1N)OC` (some centres undefined), the CC50 turned out to be 15 µM in [1]; 24.4 µM in assay [2]; 18.3 µM in [3]; 17.2 µM in [4]; 18.8 µM in [5]; 19.1 µM in [6].

On to `CCCCCCCCCCCCCCCCOCC(CO[C@H]1O[C@H](CO)[C@@H](O)[C@H](O)[C@H]1N)OC` (some centres undefined), for which the inhibition result in [7], in [9] and in assay [10] was “Active” in each case. The CC50 in assay [1] turned out to be 10.5 µM; in assay [2] it was 6.2 µM; in [3] it was 7 µM; in assay [4] it was 7 µM; in [5] it was 7 µM; in assay [6], 6 µM. In [8], the outcome was Active.
